# How the values were obtained:
# MMP-2 = molecular target: T1, MMP-2 (Homo sapiens, UniProt P08253); assay: In vitro MMP inhibition, IC50 determination (fluorogenic substrate I); type: biochemical; details: value in parentheses; read-out: MMP-2 (IC-50)
# T1 construct: made in house; host or cells: MMP-2-transfected p2AHT2 cells
# T1 sequence (P08253 110-660): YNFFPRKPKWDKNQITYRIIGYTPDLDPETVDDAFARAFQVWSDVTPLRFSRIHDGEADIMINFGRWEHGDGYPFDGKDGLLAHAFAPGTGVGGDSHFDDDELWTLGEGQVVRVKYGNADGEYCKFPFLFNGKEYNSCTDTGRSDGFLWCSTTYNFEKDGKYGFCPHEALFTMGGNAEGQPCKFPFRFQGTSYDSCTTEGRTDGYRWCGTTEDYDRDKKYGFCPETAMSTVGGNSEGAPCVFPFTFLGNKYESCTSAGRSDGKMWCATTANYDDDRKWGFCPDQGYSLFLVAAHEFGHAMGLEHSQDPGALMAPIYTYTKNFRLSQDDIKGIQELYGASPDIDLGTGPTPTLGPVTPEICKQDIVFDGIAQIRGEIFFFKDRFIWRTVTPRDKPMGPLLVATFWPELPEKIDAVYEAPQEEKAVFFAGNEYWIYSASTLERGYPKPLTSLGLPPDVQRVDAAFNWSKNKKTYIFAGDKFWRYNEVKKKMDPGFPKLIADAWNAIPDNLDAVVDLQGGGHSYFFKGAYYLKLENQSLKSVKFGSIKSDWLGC
# Experimental: (§1) Several hydroxamic acids and salts thereof were analyzed in in vitro assays to determine their ability to inhibit the MMP cleavage of peptide substrates. […] and IC50 constants were calculated from the assayed hydroxamic acid-MMP interactions.
# (§2) Human recombinant MMP-1, MMP-2, MMP-9, MMP-13, and MMP-14 were used in this assay. All enzymes were prepared in Assignee's laboratories following usual laboratory procedures. Protocols for the preparation and use of these enzymes are available in the scientific literature. See, e.g., Enzyme Nomenclature (Academic Press, San Diego, Calif., 1992) (and the citations therein). See also, Freije et al., “Molecular cloning and expression of collagenase-3, a novel human matrix metalloproteinase produced by breast carcinomas,” J Biol. Chem., 269(24), 16766-16773 (1994).
# The MMP-2 proenzyme was purified by gelatin Sepharose chromatography from MMP-2-transfected p2AHT2 cells provided by Dr. Gregory Goldberg of Washington University (St. Louis, Mo.).
# (§3) All MMPs were activated using 4-aminophenylmercuric acetate (“APMA”, Sigma Chemical, St. Louis, Mo.) or trypsin. MMP-9 also was activated using human recombinant MMP-3 (purified in Assignee's laboratory following standard cloning and purification techniques).
# (§4) Two fluorogenic, methoxycoumarin-containing polypeptide substrates were used in the MMP inhibition assays: [drawing 427] Here, “Dpa” is 3-(2,4-dinitrophenyl)-L-2,3-diaminopropionyl group, and “MCA” is 7-methoxycoumarin-4-yl acetyl. Substrate (I) was purchased from Baychem (Redwood City, Calif.), and substrate II was prepared Assignee's laboratory. Substrate I was used in the IC50 determination assays, while substrate II was used in the Ki determination assays. In the absence of MMP inhibitory activity, either substrate is cleaved at the Gly-Leu peptide bond. This cleavage separates the highly fluorogenic peptide from the 2,4-dinitrophenyl quencher, thus resulting in increase of fluorescent intensity.
# (§5) The stock solutions of the assayed hydroxamic acids (or salts thereof) were prepared in 1% dimethyl sulfoxide (DMSO). These stock solutions were diluted in Buffer A (100 mM Tris-HCl, 100 mM NaCl, 10 mM CaCl2, 0.05% polyoxyethylene 23 lauryl ether, pH 7.5) to obtain solutions with different hydroxamic acid concentrations, i.e., assay solutions with different concentrations of the assayed MMP inhibitory compound. The experiment controls contained the same amount of Buffer A/DMSO as the assayed sample, but contained no hydroxamic acid (or salt thereof).
# (§6) The assays from which the IC50 determinations were made were performed as follows. The MMPs were activated with either trypsin or APMA (4-aminophenylmercuric acetate, Sigma Chemical, St. Louis, Mo.). The assayed hydroxamic acid samples were incubated in Microfluor™ White Plates (Dynatech, Chantilly, Va.) and analyzed on a Perkin Elmer L550 plate reader (Norwalk, Conn.). The excitation wavelength was 328 nm, and the emission wavelength—415 nm. All samples (assayed hydroxamic acids and controls) were incubated in separate plates at room temperature in the presence of 4 μM of MMP substrate (I). As stated in the previous paragraph, samples containing varying concentrations of the same assayed hydroxamic acid were prepared. Inhibition was measured as a reduction in fluorescent intensity as a function of MMP inhibitor concentration.
# The above protocols were used to determine IC50 constants and Ki values for the compounds in Examples 1-27 above. All values in Table 2 are given in nM units. The IC50 measurements are in parenthesis.
# MMP-13 = molecular target: T2, MMP-13 (Homo sapiens, UniProt P45452); assay: as above; type: biochemical; details: value in parentheses; read-out: MMP-13 (IC-50)
# T2 construct: made in house; host or cells: baculovirus / insect cells
# Experimental: as §1, §2
# The MMP-13 was obtained as a proenzyme from a full-length cDNA clone using baculovirus, as described by V. A. Luckow, “Insect Cell Expression Technology,” Protein Engineering: Principles and Practice, pp. 183-218 (edited by J. L. Cleland et al., Wiley-Liss, Inc., 1996). The expressed proenzyme was first purified over a heparin agarose column, and then over a chelating zinc chloride column. The proenzyme was then activated by APMA for use in the assay. Further details on baculovirus expression systems may be found in, for example, Luckow et al., J. Virol., 67, 4566-79 (1993). See also, O'Reilly et al, Baculovirus Expression Vectors: A Laboratory Manual (W.H. Freeman and Co., New York, N.Y., 1992). See also, King et al., The Baculovirus Expression System: A Laboratory Guide (Chapman & Hall, London, England, 1992).
# as §3, §4, §5
# as §6, with “concentration. […]” for “concentration.”
Structure (SMILES),IC50 (MMP-2) [pM],IC50 (MMP-13) [pM]
CCCCOc1ccc(N2CCN(S(=O)(=O)C3(C(=O)NO)CCN(C(=O)CN)CC3)CC2)cc1 [Example 292],200,700
CCCCOc1ccc(N2CCN(S(=O)(=O)C3(C(=O)NO)CCN(Cc4cccnc4)CC3)CC2)cc1F [Example 293],300,800
CCCCOc1ccc(N2CCN(S(=O)(=O)C3(C(=O)NO)CCN(c4ccc(C)cc4)CC3)CC2)cc1 [Example 295],< 100,< 100
CCCCOc1ccc(N2CCN(S(=O)(=O)C3(C(=O)NO)CCN(c4ccc(C)cc4)CC3)CC2)cc1F [Example 296],< 100,900
COCCOc1ccc(N2CCN(S(=O)(=O)C3(C(=O)NO)CCN(C4CC4)CC3)CC2)cc1F [Example 297],400,1700
CCCCOc1ccc(N2CCN(S(=O)(=O)C3(C(=O)NO)CCN(CC4CC4)CC3)CC2)cc1 [Example 298],1100,900
Cc1cc(N2CCN(S(=O)(=O)C3(C(=O)NO)CCOCC3)CC2)ccc1OC(C)C [Example 299],12500,9300
CS(=O)(=O)c1ccc(N2CCN(S(=O)(=O)C3(C(=O)NO)CCOCC3)CC2)cc1 [Example 300],27300,61200
CCCCOc1ccc(N2CCN(S(=O)(=O)C3(C(=O)NO)CCN(C4CC4)CC3)CC2)cc1 [Example 301],200,300
C#CCN1CCC(C(=O)NO)(S(=O)(=O)N2CCN(c3ccc(OCCCC)cc3)CC2)CC1 [Example 303],100,100
